Like-named read-outs stand apart in the source and are kept apart here. Marks after values point to notes of the source that are not given here.
Assays:
C57BL6 mice [1] = tested on: C57BL6 mice
Protocol: A glucose tolerance test was conducted on day 78 of the experiment. Animals were fasted overnight (14 hours). Mice were injected intraperitoneally with D-glucose (1 g/kg body weight) and blood samples were collected via the tail vein prior to the injection (time 0) and at 15, 30 and 60 minutes following the injection.

[2] = tested on: obese mice fed high-fat diets; conditions: CAT-supplemented high-fat diets
Protocol: Experiment 3 was conducted as described for Experiments 1 and 2 as indicated below except that determination of plasma lipid concentrations and quantitative real-time PCR were performed.
Serum HDL cholesterol concentrations were determined by using a commercial precipitation assay (Wako Diagnostics, Richmond, Va.) per the manufacturer's instructions.

db/db mice [3] = tested on: db/db mice
Protocol: Mice were purchased from Harlan (Indianapolis, Ind.). Following an acclimation period of 5 days on regular rodent chow they were fed purified, high fat diets that represented a modification of the AIN-93G rodent diet in which the nutritional requirements, including those for polyunsaturated fatty acids (PUFA), were met or exceeded.
Stock fatty acid solutions, e.g., soybean oil or catalpic acid were kept at −20° C. and nitrogen-purged every time that the bottles were opened. All the experimental diets contained the same amount of energy (isocaloric) and protein (isonitrogenous). To maintain the diets isocalorically, catalpic acid replaced soybean oil in the catalpic acid diet. We utilized male, db/db [BKS.Cg-+Lepr^db/+Lepr^db/OlaHsd (type 2 Diabetic)] mice (n=20) weighing 19.86 g on day 1 of the study. The db/db mice lack the long isoform of leptin receptor and represent a well-established model of type 2 Diabetes and are often utilized to determine the pre-clinical efficacy of antidiabetic drugs. Half of the mice were fed a control and the other half a catalpic acid-supplemented diet (1 g catalpa oil/100 g diet).
(§1) Mice were weighed on a daily basis and examined for clinical signs of disease by blinded observers. Water and feed intake were assessed on a daily basis. Fasting (12 h) glucose and insulin concentrations were determined on days 0, 7, 15, 21 and 28, of the study. Briefly, blood was collected via the caudal vein and placed onto capillary blood collection tubes. Insulin concentrations were determined by using a commercially available insulin enzyme-linked immunosorbent assay (ELISA) (Linco Research, St Charles, Mo.) per manufacturer's instructions. Mice were administered a glucose tolerance test and euthanized by CO2 narcosis on day 28 of the study. For the glucose tolerance test, animals were fasted overnight (12 hours), injected intraperitoneally with D-glucose (2 g/kg body weight) and blood samples were collected via the caudal vein prior to the injection (time 0) and at 15, 30, 60, 90, 120 and 180 minutes following the injection to determine the effect of CAT on the kinetics of glucose normalization.

db/db mice [4] = conditions: 0-180 min after glucose injection, all time points, FIG. 2B
Protocol: as §1

C57BL6 mice [5] = conditions: for White adipose tissue, g (abdominal) / Brown adipose tissue, g (interscapular) / Glucose (mg/dL), plasma fasting / Insulin (ng/mL), plasma fasting: C57BL6 mice, day 78; for White adipose tissue, g (abdominal): least squares mean
Text: In Western countries the Metabolic Syndrome or Syndrome X (i.e., diabetes, obesity, cardiovascular disease, hypertension and hyperlipidemia) is on a steady rise. […] A total of forty-seven C57BL6 mice were used in experiment 1. Twenty-five mice were fed a control diet and […] mice were fed a diet supplemented with catalpic acid (0.6 g catalpic acid/100 g food). For the first 32 days of the experiment all diets contained 7% fat, 0.02% total cholesterol, and they obtained 14.5% of calories from fat by replacing catalpic acid with linoleic acid (wt/wt basis) in the control diet.
These diets are defined as regular diets and were formulated to be isocaloric between treatment groups. On day 32 of the experiment, twenty mice within each group were fed high fat diets containing 19.6% fat, 0.2% total cholesterol that obtained 40.1% of calories from fat by replacing catalpic acid with lard (wt/wt basis) in the control high fat diet.
The high fat diets were also formulated to be isocaloric between treatment groups. The remaining mice within each group (n=5) were fed the regular diets. On day 78 of the experiment, mice were killed, and blood was collected and immediately analyzed for fasting glucose concentrations by using the Accu-Check Instant Plus System (Roche Diagnostics Corporation, Indianapolis, Ind.) or stored for subsequent analysis of insulin and lipid concentrations in plasma. Abdominal white adipose tissue and interscapular brown adipose tissue were collected, weighed and stored at −80° C. for RNA analyses. Liver, lungs, kidneys, pancreas and heart were examined for macroscopic abnormalities (gross lesions), fixed in phosphate-buffered formalin (10%) and processed for histological evaluation. All specimens were generally labeled with the following information: 1) mouse number; 2) date collected; 3) experiment number; 4) type of solvent; and 5) tissue type.
Serum insulin concentrations were determined by using commercially available enzyme-linked immunosorbent assay kits (Linco Research, St. Charles, Mo.).

[6] = tested on: enoyl-coenzyme A hydratase (ECH); conditions: n = 10
Protocol: (§2) On day 28 or 78 of Experiments 1 and 2, visceral white adipose tissue (WAT) or pancreas samples were collected, stored in RNA later and frozen at −80° C. The dissection of intra-abdominal WAT was performed under magnification. RNA was isolated from WAT and pancreas specimens utilizing RNA isolation columns (Qiagen, Valencia, Calif.) per the manufacturer's instructions. RNA from the WAT was isolated using the Lipid Minikit (Qiagen). RNA was quantified using a μQuant microplate reader (Bio-TEK® Instruments, Inc., Winooski, Vt.). Briefly, total RNA (1 μg) from each sample was used to generate complementary DNA (cDNA) template using the iScript cDNA Synthesis Kit (Bio-Rad, Hercules, Calif.). The total reaction volume was 20 μl. The reaction was incubated as follows in a Tetrad Thermocycler (MJResearch, Waltham, Mass.): 5 minutes at 25° C., 30 minutes at 42° C., 5 minutes at 85° C., hold at 4° C. cDNA products were diluted 1:10 in diethylpyrocarbonate-treated water. Controls were also performed with no RNA template (no template) and omitting the reverse transcriptase enzyme (no RT).
(§3) The PCR primer pairs were designed based on previously published sequences (GenBank) using the Oligo 6 primer design software (Molecular Biology Insights, Cascade, Colo.). The PCR primer pair sequences, annealing temperatures, accession numbers and PCR product lengths are outlined in Table 5. […] Each gene amplicon was purified by using the MiniElute PCR Purification kit (Qiagen). The purified amplicon for each gene was quantified on an agarose gel using a DNA mass ladder. These purified amplicons were further used to optimize the real-time PCR conditions and to generate the standard curves in the real-time PCR assay. Primer concentrations and annealing temperatures were optimized for the iCycler iQ System (Bio-Rad) for each set of primers using the system's gradient protocol.
(§4) Messenger RNA (mRNA) expression of peroxisome proliferator-activated receptor (PPAR) gamma, PPAR alpha, and PPAR delta was determined in adipose tissue. […] Therefore, we also examined the expression of four PPAR alpha-responsive genes in WAT, including acyl-coenzyme A dehydrogenase (ACDH), stearoyl-coenzyme A desaturase (SCD1), enoyl-coenzyme A hydratase (ECH) and carnitine palmitoyl transferase-1 (Cpt-1).
(§5) Transcript expression was examined by real-time, quantitative PCR by using an iCycler iQ System and the iQ SYBR Green Supermix (Bio-Rad). Real-time PCR was used to measure the starting amount of nucleic acid by assaying each unknown starting quantity of cDNA on a 96-well plate. For each gene, the results were calculated as starting quantity of cDNA (picograms) per microgram of RNA.

PPAR alpha = conditions: for PPAR alpha mRNA expression in white adipose tissue: n = 10
Protocol: as §2, §3, §4, §5

[7] = tested on: stearoyl-coenzyme A desaturase (SCD1); conditions: n = 10
Protocol: as §2, §3, §4, §5

PPAR gamma = conditions: C57BL/6J wild-type mice, 78 days, n = 10
Protocol: as §2, §3, §4, §5

[8] = high fat diets, CAT-supplemented
[9] = regular diets, CAT-supplemented
[10] = C57BL/6J wild-type mice, 78 days

Protocol for PPAR delta: On day 28 or 78 of Experiments 1 and 2, visceral white adipose tissue (WAT) or pancreas samples were collected, stored in RNA later and frozen at −80° C. The dissection of intra-abdominal WAT was performed under magnification. RNA was isolated from WAT and pancreas specimens utilizing RNA isolation columns (Qiagen, Valencia, Calif.) per the manufacturer's instructions. RNA from the WAT was isolated using the Lipid Minikit (Qiagen). RNA was quantified using a μQuant microplate reader (Bio-TEK® Instruments, Inc., Winooski, Vt.). Briefly, total RNA (1 μg) from each sample was used to generate complementary DNA (cDNA) template using the iScript cDNA Synthesis Kit (Bio-Rad, Hercules, Calif.). The total reaction volume was 20 μl. […]
The PCR primer pairs were designed based on previously published sequences (GenBank) using the Oligo 6 primer design software (Molecular Biology Insights, Cascade, Colo.). […] The purified amplicon for each gene was quantified on an agarose gel using a DNA mass ladder. […]
Messenger RNA (mRNA) expression of peroxisome proliferator-activated receptor (PPAR) gamma, PPAR alpha, and PPAR delta was determined in adipose tissue. Based on the patterns of expression of the nuclear receptors in each tissue, the expression of a relevant panel of responsive genes was evaluated by quantitative real-time PCR. […]

CCCC\C=C/C=C/C=C/CCCCCCCC(=O)O [CAT, catalpic acid]
glucose tolerance versus control (C57BL6 mice [1]; mice fed high fat diets, FIG. 1B): normalizes impaired glucose tolerance | glucose tolerance versus control (C57BL6 mice [1]; mice fed regular diets, FIG. 1A): not different | plasma triglyceride concentrations versus control high-fat diet ([2]; mice, FIG. 6B): lower | HDL cholesterol concentrations versus control high-fat diet ([2]; obese mice, FIG. 6A): greater | difference in WAT weight between groups attributable to catalpic acid (db/db mice [3]; day 28): over 10% | abdominal WAT weight versus control (db/db mice [3]; day 28, FIG. 5): significantly lower | body weight versus control (db/db mice [3]; high fat diet, FIG. 4A): No differences | feed intake versus control (db/db mice [3]; high fat diet, FIG. 4B): No differences | glucose concentrations (db/db mice [3]; high fat diet, day 28 (control 425 mg/dl)): 290 mg/dL | fasting plasma insulin concentrations (db/db mice [3]; high fat diet, days 0-28, remained at basal levels, FIG. 3): lower than 4 ng/ml | fasting plasma glucose versus high fat control diet (db/db mice [3]; high fat diet, days 14, 21 and 28, P<0.05, FIG. 2A): lower | glucose normalizing ability versus control (db/db mice [4]): greater | White adipose tissue, g (abdominal) (C57BL6 mice [5]; high fat diets from day 32, CAT-supplemented): 0.607^b g | Brown adipose tissue, g (interscapular) (C57BL6 mice [5]; [8]): 0.105 g | Glucose (mg/dL), plasma fasting (C57BL6 mice [5]; [8]): 205.43^b mg/dL | Insulin (ng/mL), plasma fasting (C57BL6 mice [5]; [8]): 0.730^b ng/mL | Brown adipose tissue, g (interscapular) (C57BL6 mice [5]; [9]): 0.169 g | Glucose (mg/dL), plasma fasting (C57BL6 mice [5]; [9]): 146.20^b mg/dL | Insulin (ng/mL), plasma fasting (C57BL6 mice [5]; [9]): 0.960^b ng/mL | White adipose tissue, g (abdominal) (C57BL6 mice [5]; [9]): 0.751^b g | fatty liver or enlarged viscera (C57BL6 mice [5]; mice fed catalpic acid-supplemented diets, Experiment 1): not observed | Enoyl CoA Hydratase mRNA expression in white adipose tissue [6, 10]: 0.0039^a picograms of starting cDNA per microgram of white adipose tissue total RNA | Enoyl CoA Hydratase mRNA expression in white adipose tissue ([6]; db/db mice, 28 days): 0.0024 picograms of starting cDNA per microgram of white adipose tissue total RNA | PPAR alpha mRNA expression in white adipose tissue (PPAR alpha; [10]): 0.005^a picograms of starting cDNA per microgram of white adipose tissue total RNA | PPAR alpha mRNA expression in white adipose tissue (PPAR alpha; db/db mice, 28 days): 0.0052^a picograms of starting cDNA per microgram of white adipose tissue total RNA | pancreatic concentrations of PPAR alpha and its responsive genes (PPAR alpha; pancreas of CAT-fed mice): unchanged | Stearoyl CoA Desaturase mRNA expression in white adipose tissue [7, 10]: 0.130^a picograms of starting cDNA per microgram of white adipose tissue total RNA | Stearoyl CoA Desaturase mRNA expression in white adipose tissue ([7]; db/db mice, 28 days): 0.095^a picograms of starting cDNA per microgram of white adipose tissue total RNA | PPAR gamma mRNA expression in white adipose tissue (PPAR gamma): 0.074 picograms of starting cDNA per microgram of white adipose tissue total RNA | PPAR delta mRNA expression in white adipose tissue (PPAR delta; C57BL/6J wild-type mice, 78 days, n = 10): 0.007 picograms of starting cDNA per microgram of white adipose tissue total RNA | PPAR delta expression in the pancreas (PPAR delta; pancreas of CAT-fed mice, P<0.04): 0.069
